According to PMC10733463, “Berberine-microbiota interplay: orchestrating gut health through modulation of the gut microbiota and metabolic transformation into bioactive metabolites” (Frontiers in Pharmacology, 2023):

Columns and labels:
[1] = UPLC-MS/MS quantification of berberine and metabolites in plasma; assay type: in vivo, Ross 308 broiler chickens; details: chickens fed 0.1, 0.5 or 1 g berberine/kg feed for 21 days; LOQ 0.1 ng/mL
Description: (§1) The study was undertaken following the guidelines of the ethics committee of the Faculty of Veterinary Medicine and Bioscience Engineering, Ghent University, in accordance with the EU Directive 2010/63/EU. One-day-old Ross 308 male broilers were obtained from a local hatchery and housed in pens on wood shavings. They were allotted into 4 groups, with three replicate pens per group each housing 8 chickens. The animals were not vaccinated. Water and commercial starter feed (day 1–12, FARM 1 Mash, Country’s Best, Versele Laga, Deinze, Belgium) or grower (day 13–21, FARM 2 mash, Country’s Best, Versele Laga, Deinze, Belgium) were provided ad libitum. The control group received the standard non-supplemented diets, whereas the chickens in other groups were fed the same feed supplemented with 0.1, 0.5 or 1 g berberine/kg feed throughout the whole trial period. At day 21, 4 birds per pen were weighted then euthanized by sodium pentobarbital injection for sampling. Individual jejunal, ileal, caecal and colonic contents were stored at −20°C for microbiota composition analysis (16S rRNA gene sequencing). Additionally, ileal and caecal content samples were collected and stored at −20°C for berberine and berberine-derived metabolite quantification. Duodenal tissue samples were collected and fixed in 4% phosphate buffered formaldehyde for histological analysis. Blood samples were collected in heparin tubes and centrifuged at 524 g for 10 min to recover the plasma fraction, which was further mixed with 17 mg/mL L-ascorbic acid for dihydroberberine stabilization, and stored at −20°C for berberine and berberine-derived metabolite quantification.
(§2) The column temperature was maintained at 25°C. The autosampler temperature was set at 10°C.
A 137.5 µL plasma sample containing 17 mg/mL L-ascorbic acid was used for sample extraction. The ascorbic acid solution was added to prevent oxidation of dihydroberberine to berberine during sample storage ([Feng et al., 2015]). The plasma sample was transferred to an OstroTM 96 well-plate (25 mg) (Waters). Subsequently, 50 µL Milli-Q water and 25 µL of an internal standard solution containing 100 ng/mL of both berberine-d6 and tetrahydropalmatine were added. A 640 µL volume of 1% (v/v) formic acid solution in acetonitrile (1/3 ratio) was added, followed by gentle mixing. Vacuum was applied on the Ostro™ plate for 5 min and the eluate was collected in a 2 mL square 96-well collector plate. The sample was transferred in a glass tube and evaporated at 40°C under a gentle stream of nitrogen in a Pierce (Rockford, United States) Reacti-Therm III™ Heating Module and Reacti-Vap™ III Module. The dried sample extract was reconstituted in 500 µL Milli-Q water, followed by injection of a 5 µL sample aliquot onto the UPLC-MS/MS apparatus. Quantification was based on the ratio of the analyte peak area compared to the peak area of the internal standard berberine-d6.
Calibration standards and quality control samples were prepared as follows: 137.5 µL of blank plasma stabilized with 17 mg/mL L-ascorbic acid were supplemented with 25 µL mixed working solutions of berberine and metabolites (except dihydroberberine) at different levels, 25 µL of dihydroberberine working solution, stabilized with 17 mg/mL L-ascorbic acid, at different levels and 25 µL of an internal standard solution containing 100 ng/mL of both berberine-d6 and tetrahydropalmatine. The calibration curve was in the 0.1–100 ng/mL range, including 0.1, 0.5, 1, 2.5, 5, 10, 25, […], 50 and 100 ng/mL levels.
The UPLC-MS/MS analysis method for the quantification of berberine and berberine-derived metabolites both in plasma and ileal/caecal intestinal content was validated to the guidelines of the European Medicines Agency, i.e., of the Committee for Veterinary Medicinal Products (EMEA/CVMP/VICH/463202/2009) and of the Committee for Medicinal Products for Human Use (EMEA/CHMP/EWP/192217/20), and in accordance with the EU Directive 2002/657/EC. […]

[2] = UPLC-MS/MS quantification of berberine and metabolites in ileal and caecal content; assay type: in vivo, Ross 308 broiler chickens; details: 21 days
Description: as §1, §2
250 mg of ileal or caecal content was weighed in a 15 mL polypropylene centrifuge tube and 250 µL of ascorbic acid 170 mg/mL solution was added for stabilization of dihydroberberine, followed by brief vortexing. Subsequently, 25 µL of an internal standard solution containing 250 μg/mL of berberine-d6 and 2.5 μg/mL tetrahydropalmatine were added, followed by brief vortexing. A 2.5 mL volume of extraction solvent was then added, consisting of a 1% (v/v) formic acid solution in methanol. The sample was put on a rotary shaker set at 80 rpm for 20 min, followed by centrifugation (3,720 g, 10 min, 4°C). The supernatant was then diluted, by a factor 5 for measurement of low abundance components, and by a factor 2,000 for measurement of high abundance components. The 1/5 diluted sample extract was prepared directly in an autosampler vial as follows: 200 µL sample extract were mixed with 100 µL ascorbic acid 170 mg/mL solution and 700 µL Milli-Q water. For the 1/2,000 diluted sample extract, an intermediate 1/100 sample dilution was prepared by combining 500 µL sample extract and 49.5 mL of Milli-Q water. 50 μL was then transferred in an autosampler vial followed by the addition of 950 µL of Milli-Q water. For both dilutions, a 5 µL sample aliquot was injected onto the UPLC-MS/MS apparatus. Quantification was based on the ratio of the analyte peak area compared to the peak area of the internal standard tetrahydropalmatine for 1/5 diluted sample extracts, and on the ratio of the analyte peak area compared to the peak area of the internal standard berberine-d6 for 1/2,000 diluted sample extracts.
Calibration standards and quality control samples were prepared as follows: 250 mg of blank ileal or caecal content were supplemented with 250 µL of ascorbic acid 170 mg/mL solution, 25 µL mixed solution of berberine and metabolites (with the exception of dihydroberberine) at different levels, 25 µL of dihydroberberine solution, stabilized with 17 mg/mL ascorbic acid, at different levels and 25 µL of an internal standard solution containing 0.625 μg/mL of berberine-d6 and 2.5 μg/mL tetrahydropalmatine. The calibration curve was in the 62.5–5,000 ng/g range, and included 62.5, 125, 250, 500, 1,000, 2,500, and 5,000 ng/g levels. […]

SMILES	Detection in plasma [1]	Ratio caecum / ileum (concentration) ([2]; 0.1 g berberine/kg feed)	Ratio caecum / ileum (concentration) ([2]; 0.5 g berberine/kg feed)	Ratio caecum / ileum (concentration) ([2]; 1 g berberine/kg feed)
COc1cc2c(cc1OS(=O)(=O)[O-])-c1cc3ccc(OC)c(OC)c3c[n+]1CC2 [columbamine-sulfate]	not detected	–	–	–
COc1cc2c(cc1O)-c1cc3ccc(OC)c(OC)c3c[n+]1CC2 [Columbamine, columbamine]	below LOQ	0.27	0.32	0.44
